Laboratory results as given in patent US10980723B2, “Non-aqueous composition for hair frizz reduction” (The Procter & Gamble Company, priority 2017, dated 2021).

Assay: Hair Switch Frizz Assessment by ten expert graders
Conditions: for Results of Hair Switch Rating (frizz protection, clean feel, greasy feel) in words: aqueous compositions, Tables 3 and 4, 1% material; for Results of Hair Switch Rating (frizz protection, clean, smooth, greasy feel) in words: non-aqueous compositions, Tables 9 and 10, 1% material
Protocol: The leave-on treatment compositions are prepared by adding the Moisture Control Materials and perfume, if needed, into a 50:50 ethanol/water carrier and stirred until complete dissolution. The solution pH is adjusted using sodium hydroxide (50% w/w) to a final pH of 4.0-4.2. […] Method of Making Non-Aqueous Leave-on Treatment Compositions The non-aqueous leave-on treatment compositions are prepared by adding the Moisture Control Materials and perfume, if needed, into a mixture of Dimethiconol/Dimethicone and Cyclopentasiloxane/Isododecane and stirred until complete dissolution. Additionally, propylene glycol is added to aid in dissolution of moisture control materials at high levels of dimethicone. […] Method of Making of Non-Aqueous Leave-on Treatment Composition in a Solid Form The leave-on treatment composition in solid form is prepared by mixing together two different compositions. A premix and main-mix. […] In-Use Product Feel Assessment on Hair Switch Ten expert graders are asked to apply formulation on hair and rate each formulation based on a 5 point scale for in-use feel assessment, 5 being the highest (best feel) and 1 being the lowest rating. Method of Determining Stability of the Compositions Leave-on compositions are kept at 40° C. at 60% RH to visually assess any precipitation on day 1 and after a week of storage at these conditions.
Then, ten experts are asked to rate each hair switch in terms of frizz, clean feel, and greasy feel, based on a 5 point scale, 5 being the highest and 1 being the lowest rating.
Then, ten experts are asked to rate each hair switch in terms of frizz, clean feel, smooth feel and greasy feel, based on a 5 point scale, 5 being the highest and 1 being the lowest rating.

Compound: CCCCCCCCC(CO)CCCCCC (centres unmarked) [2-Hexyl-1-decanol]
- Results of Hair Switch Rating (frizz protection, clean feel, greasy feel) in words: provide frizz protection with clean feel and without greasy feel negative
- Results of Hair Switch Rating (frizz protection, clean, smooth, greasy feel) in words: provide frizz protection with clean, smooth feel and without greasy feel negative

Compound: O=C(O)c1cc(Cl)ccc1O [5-Chlorosalicylic acid]
- Results of Hair Switch Rating (frizz protection, clean feel, greasy feel) in words: provide frizz protection with clean feel and without greasy feel negative
- Results of Hair Switch Rating (frizz protection, clean, smooth, greasy feel) in words: provide frizz protection with clean and smooth feel and without greasy feel negative

Compound: O=S(=O)(O)c1ccc(O)cc1 [4-Hydroxybenzenesulphonic acid]
- Results of Hair Switch Rating (frizz protection, clean feel, greasy feel) in words: provide frizz protection with clean feel and without greasy feel negative
- Results of Hair Switch Rating (frizz protection, clean, smooth, greasy feel) in words: provide frizz protection with clean and smooth feel and without greasy feel negative

Compound: O=C(O)c1ccccc1O [Salicylic acid]
- Results of Hair Switch Rating (frizz protection, clean feel, greasy feel) in words: provide frizz protection with clean feel and without greasy feel negative
- Results of Hair Switch Rating (frizz protection, clean, smooth, greasy feel) in words: provide frizz protection with clean and smooth feel and without greasy feel negative

Compound: O=C(O)c1ccc(O)cc1O [2,4-Dihydroxybenzoic acid]
- Results of Hair Switch Rating (frizz protection, clean feel, greasy feel) in words: provide frizz protection with clean feel and without greasy feel negative
- Results of Hair Switch Rating (frizz protection, clean, smooth, greasy feel) in words: provide frizz protection with clean and smooth feel and without greasy feel negative

Compound: CC(C)CCCCCCCCCCCCCCCOC(=O)CCCCCCCCCCCCCCC(C)C [Isostearyl isostearate]
- Results of Hair Switch Rating (frizz protection, clean feel, greasy feel) in words: provide frizz protection with clean feel and without greasy feel negative
- Results of Hair Switch Rating (frizz protection, clean, smooth, greasy feel) in words: provide frizz protection with clean, smooth feel and without greasy feel negative

Compound: O=C(OCCO)c1ccccc1O [2-Hydroxyethyl salicylate]
- Results of Hair Switch Rating (frizz protection, clean feel, greasy feel) in words: provide frizz protection with clean feel and without greasy feel negative
- Results of Hair Switch Rating (frizz protection, clean, smooth, greasy feel) in words: provide frizz protection with clean, smooth feel and without greasy feel negative
